# Laboratory results from US11707557B2, “Compositions and devices incorporating water-insoluble therapeutic agents and methods of the use thereof” (COOK MEDICAL TECHNOLOGIES LLC, priority 2014, dated 2023).
# Legend:
# [1] = test system: Human umbilical vein endothelial cells (HUVEC); experiment: Accumulation of docetaxel in HUVEC cells and effect of ultrasound; format: cell-based
# From the text: Human umbilical vein endothelial cells (HUVEC) and the associated culture media were obtained from Lonza Chemicals (Basel, Switzerland). All cells were applied to 48 well plates in respective media at a concentration of 5000 cells per well or filter. The cells were allowed to equilibrate for 3 days at which time they became approximately 80% confluent. In the 48 well plates, only 24 wells were used per plate so that wells with cells appeared in a checkerboard pattern.
# After 2 days, cells were ready for drug incubation with or without ultrasound treatment. The drug solutions (including radiolabelled docetaxel) were applied to the cells (0.5 ml) for 2 hours. Some cells were then ultrasonicated. Briefly, cells received a single 10-s burst of ultrasound at 4 MHz with a power density of 30 W/cm^2.
# After ultrasound treatment, the drug solution was immediately removed and all cells were washed three times with 500 ul of HBSS. The amount of docetaxel retained in the cells was determined by lysing the cells in 200 ul of lysis buffer (2% Triton X100 containing 33% DMSO) and quantitation by liquid scintillation counting.
# [2] = test system: mdck-mdr cells; experiment: Uptake of paclitaxel into drug resistant mdck-mdr cells with or without EGCG; format: cell-based, canine
SMILES,"effect of ultrasound on uptake of drug into cells ([1]; 10-s burst, 4 MHz, 30 W/cm^2, all formulations)",uptake of docetaxel from ECGC formulations relative to micellar formulation ([1]; 2 hours incubation),paclitaxel level in cells ([2]; co-incubated with EGCG at 50 microg/ml),paclitaxel level in cells ([2]; paclitaxel alone),increase in drug uptake with EGCG ([2]; with EGCG versus alone)
CC(=O)O[C@@]12CO[C@@H]1C[C@H](O)[C@@]1(C)C(=O)[C@H](O)C3=C(C)[C@@H](OC(=O)[C@H](O)[C@@H](NC(=O)OC(C)(C)C)c4ccccc4)C[C@@](O)([C@@H](OC(=O)c4ccccc4)[C@H]21)C3(C)C [docetaxel],increased the uptake,approximately 4 fold,–,–,–
CC(=O)O[C@H]1C(=O)[C@@]2(C)[C@H]([C@H](OC(=O)c3ccccc3)[C@]3(O)C[C@H](OC(=O)[C@H](O)[C@@H](NC(=O)c4ccccc4)c4ccccc4)C(C)=C1C3(C)C)[C@]1(OC(C)=O)CO[C@@H]1C[C@@H]2O [paclitaxel],–,–,≤ 2000 pg/mg,< 200 pg/mg cellular protein,10 fold
